Consider 40 compounds from ChEMBL document CHEMBL3507680, “University of Dundee, Gates Library screen for HepG2 cell viability”.

Values joined by “and” are separate entries in the source; they are usually repeats but may differ in a detail not shown here. Equal entries are not always repeated.

In general, Inhibition refers to the drop in the measured response relative to a control, in per cent.

A short description of one data set: Human HepG2 cell viability assay in 384 well format. It counts as toxicity, cell-based. Further details: dose 125 nL, time 70.5 hour; cytotoxicity at 70.5 h: concentration not given beside the values. As to conditions: HepG2 cells, read-out: Inhibition.
On to `Cn1cccc1C(=O)N1CCO[C@@H]2CN(Cc3ccco3)C[C@@H]2C1`, for which the cytotoxicity at 70.5 h is -5.04%.

On to `CCc1nnc(CNC(=O)CCC2CCCCN2C)s1` (stereo not given), for which the cytotoxicity at 70.5 h worked out at 6.71%.

In the case of `CCC(=O)NCC(Cc1cccc(F)c1)n1cccc1` (stereo not given), the cytotoxicity at 70.5 h was -7.66%.

In the case of `NC(=O)CN1CCC(NC2CSCCc3ccccc32)CC1` (stereo not given), the cytotoxicity at 70.5 h was determined as 5.08%.

Regarding `CN(C)C(=O)c1nc2c(n1C)CCN(Cc1ccccc1)C2`, the cytotoxicity at 70.5 h came to 0.767%.

Consider `CNC(=O)c1cc(C)n(-c2ccccc2)n1`, for which the cytotoxicity at 70.5 h is -2.98%.

In the case of `O[C@H]1[C@H](n2cc(-c3ccccn3)nn2)c2ccccc2C12CCNCC2`, the cytotoxicity at 70.5 h is -3.68%.

`Cc1cccc(C(=O)N(C)C2CCN(c3ccccn3)CC2)c1C`: the cytotoxicity at 70.5 h is 2.5%.

Turning to `CC(C)COC1CCN(S(=O)(=O)Cc2cccc(F)c2)CC1`, the cytotoxicity at 70.5 h was -14.2%.

In the case of `CC(C)c1nc(CN2CCCN(c3nccs3)CC2)no1`, the cytotoxicity at 70.5 h is 6.41%.

On to `CC(C)Oc1ccc2c(NC(=O)CN(C)C)nn(CC(F)(F)F)c2c1`, for which the cytotoxicity at 70.5 h was -19%.

In the case of `CC(=O)NC[C@@H]1C=C(C)[C@H](CC(=O)NCc2cccnc2)C[C@H]1C(C)C`, the cytotoxicity at 70.5 h came to 4.62%.

As for `Cc1c[nH]c(CN(C)C(=O)[C@@]23CNC[C@@H]2CN(c2ncccn2)C3)n1`, the cytotoxicity at 70.5 h was -14%.

Consider `CN1CCC(CN(C)C(=O)c2cc(C3CCCN3C)ccn2)CC1` (stereo not given), for which the cytotoxicity at 70.5 h was -6.76%.

On to `CCN(CCc1nc2cc(C)ccc2[nH]1)C(=O)COC`, for which the cytotoxicity at 70.5 h was -4.93%.

For `Cc1nn(C)c(NC(=O)C2SCCc3ccccc32)c1C` (stereo not given), the cytotoxicity at 70.5 h turned out to be 0.91%.

In the case of `CS(=O)(=O)c1ccc(C(=O)NCc2nc3cc(F)ccc3[nH]2)cc1`, the cytotoxicity at 70.5 h was 0.751%.

For the compound `CC1c2ncc(CN3CCN(C)CC3)n2CCN1Cc1cccnc1` (stereo not given), the cytotoxicity at 70.5 h was -15.8%.

As for `CCOC(=O)C1CCN(C(=O)CN2CCCC2Cc2ccccc2)CC1` (stereo not given), the cytotoxicity at 70.5 h is -17.2%.

As to `Cc1nc(N2CCOCC2)nc2c1CCN(Cc1nccn1C)CC2`, the cytotoxicity at 70.5 h is -11.2%.

With `CCNc1ncc(C(=O)NC2CCOCC2)cn1`, the cytotoxicity at 70.5 h was -5.98%.

For `CS(=O)(=O)N1CCN(CC2CC2)c2ncccc2C1`, the cytotoxicity at 70.5 h was -9.41%.

For `Cn1ccnc1C(=O)N1CCC2(CCCN2CC2CC2)CC1`, the cytotoxicity at 70.5 h was -7.19%.

As for `Cc1nnc2n1CCN(C(=O)c1ccnc(N(C)C)c1)C2`, the cytotoxicity at 70.5 h is 6.98%.

In the case of `CN(CCCc1cc(-c2ccc(F)cc2)n(C)n1)CC(N)=O`, the cytotoxicity at 70.5 h was -11.3%.

Turning to `CCS(=O)(=O)NC[C@]12COC[C@H]1CN(Cc1ccncc1)C2`, the cytotoxicity at 70.5 h is -5.02%.

For the compound `Cn1cc(CN2CCc3c(cnc(-c4ccccc4)c3C(=O)O)C2)cn1`, the cytotoxicity at 70.5 h is -5.39%.

With `Cc1nc(C2CCCCC2)sc1C(=O)O`, the cytotoxicity at 70.5 h was determined as 0.584%.

As for `O=C(NCC(F)F)c1cc(-c2ccccc2)nc2ncnn12`, the cytotoxicity at 70.5 h is -1.07%.

Regarding `c1cnc(NC2COC3(CCN(Cc4cccs4)CC3)C2)nc1` (stereo not given), the cytotoxicity at 70.5 h is -97%.

As to `CSCc1cccc(S(=O)(=O)N2CCSCC2)c1`, the cytotoxicity at 70.5 h was -4.49%.

As for `CCc1n[nH]c(C2CN(C(=O)c3cncnc3CC)CCO2)n1` (stereo not given), the cytotoxicity at 70.5 h was determined as 0.869%.

For the compound `COCCCN1CCC(NC(=O)C2CC2)CC1`, the cytotoxicity at 70.5 h is -4.57%.

As to `Nc1nc(CCC(=O)N2C[C@@H](CN3CCCC3)C[C@H](CO)C2)n[nH]1`, the cytotoxicity at 70.5 h is -6.67%.

For `O=S1(=O)CCC(CNc2cc(-c3ccccc3)nc3ccnn23)C1` (stereo not given), the cytotoxicity at 70.5 h is -9.95%.

On to `COc1cccc(OCCNCc2c(C)nn(C)c2N(C)C)c1`, for which the cytotoxicity at 70.5 h was -4.8%.

`O=C(C[C@@H]1COC[C@H]2CN(C3CCC3)C[C@@H]12)NCc1cccnc1`: the cytotoxicity at 70.5 h was -16.6%.

As to `NC(=O)CN1CCC(c2cc(C(F)(F)F)n3ccnc3n2)CC1`, the cytotoxicity at 70.5 h is -3.15%.

For `CCCC(C#N)NC(=O)Cc1csc(CC)n1` (stereo not given), the cytotoxicity at 70.5 h was -0.509%.

The same data set, now with this note: hepg2, 70.5 h, 70.5 h.
Regarding `Cc1cc(NC(=O)C(C)Cn2cncn2)no1` (stereo not given), the Inhibition is 6.977% and -4.493%.
